According to US20200187499A1, “SUBSTITUTED BENZYL-4-AMINOPICOLINIC ESTERS AND PYRIMIDINO-4-CARBOXYLIC ESTERS, METHODS FOR THE PRODUCTION THEREOF, AND USE THEREOF AS HERBICIDES AND PLANT GROWTH REGULATORS” (Bayer CropScience Aktiengesellschaft, priority 2017, published 2020):

Tests used:
Type in all cases: in vivo
[1] = tested on: ABUTH; assay: Pre-emergence herbicidal action; settings: Table 2, pre-emergence (PE), 320 g/ha, scored after 3 weeks
Method in brief: (§1)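 Activity is a visual percent rating after 3 greenhouse weeks relative to untreated plants, 100% meaning plant death. Treatment was pre-emergence: WP or EC products applied in water (600–800 l/ha, plus 0.2% wetting agent) to covering soil over seeds in sandy loam.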

[2] = tested on: ALOMY; assay: Pre-emergence herbicidal action; settings: Table 2, pre-emergence (PE), 320 g/ha, scored after 3 weeks
Method in brief: as §1

[3] = tested on: AMARE; assay: Pre-emergence herbicidal action; settings: Table 2, pre-emergence (PE), 320 g/ha, scored after 3 weeks
Method in brief: as §1

[4] = tested on: ECHCG; assay: Pre-emergence herbicidal action; settings: Table 2, pre-emergence (PE), 320 g/ha, scored after 3 weeks
Method in brief: as §1

[5] = tested on: POLCO; assay: Pre-emergence herbicidal action; settings: Table 2, pre-emergence (PE), 320 g/ha, scored after 3 weeks
Method in brief: as §1

[6] = tested on: SETVI; assay: Pre-emergence herbicidal action; settings: Table 2, pre-emergence (PE), 320 g/ha, scored after 3 weeks
Method in brief: as §1

[7] = tested on: VIOTR; assay: Pre-emergence herbicidal action; settings: Table 2, pre-emergence (PE), 320 g/ha, scored after 3 weeks
Method in brief: as §1

[8] = tested on: ABUTH; assay: Post-emergence herbicidal action; settings: Table 5, post-emergence (PO), 320 g/ha, assessed after about 3 weeks
Method in brief: (§2)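 Visual percent herbicidal action (0% = like control, 100% = dead) was scored roughly 3 weeks after treatment. Compounds were sprayed post-emergence as aqueous WP/EC preparations, 600–800 l/ha water plus 0.2% wetting agent. Plants were at the one-leaf stage, 2–3 weeks after sowing in sandy loam, greenhouse-grown.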

[9] = tested on: AMARE; assay: Post-emergence herbicidal action; settings: Table 5, post-emergence (PO), 320 g/ha, assessed after about 3 weeks
Method in brief: as §2

[10] = tested on: ECHCG; assay: Post-emergence herbicidal action; settings: Table 5, post-emergence (PO), 320 g/ha, assessed after about 3 weeks
Method in brief: as §2

[11] = tested on: PHBPU; assay: Post-emergence herbicidal action; settings: Table 5, post-emergence (PO), 320 g/ha, assessed after about 3 weeks
Method in brief: as §2

[12] = tested on: POLCO; assay: Post-emergence herbicidal action; settings: Table 5, post-emergence (PO), 320 g/ha, assessed after about 3 weeks
Method in brief: as §2

[13] = tested on: SETVI; assay: Post-emergence herbicidal action; settings: Table 5, post-emergence (PO), 320 g/ha, assessed after about 3 weeks
Method in brief: as §2

[14] = tested on: STEME; assay: Post-emergence herbicidal action; settings: Table 5, post-emergence (PO), 320 g/ha, assessed after about 3 weeks
Method in brief: as §2

[15] = tested on: VIOTR; assay: Post-emergence herbicidal action; settings: Table 5, post-emergence (PO), 320 g/ha, assessed after about 3 weeks
Method in brief: as §2

Row | SMILES | Herbicidal action against ABUTH [1] [%] | Herbicidal action against ALOMY [2] [%] | Herbicidal action against AMARE [3] [%] | Herbicidal action against ECHCG [4] [%] | Herbicidal action against POLCO [5] [%] | Herbicidal action against SETVI [6] [%] | Herbicidal action against VIOTR [7] [%] | Herbicidal action against ABUTH [8] [%] | Herbicidal action against AMARE [9] [%] | Herbicidal action against ECHCG [10] [%] | Herbicidal action against PHBPU [11] [%] | Herbicidal action against POLCO [12] [%] | Herbicidal action against SETVI [13] [%] | Herbicidal action against STEME [14] [%] | Herbicidal action against VIOTR [15] [%]
1 | Nc1cc(-c2ccc3ccsc3c2)nc(C(=O)OCc2ccc(F)cc2)c1Cl [Example I-07, 4-fluorobenzyl 4-amino-6-(1-benzothiophen-6-yl)-3-chloropyridine-2-carboxylate] | 80 | 90 | 100 | 100 | 100 | 90 | 50 | 100 | 100 | 90 | 80 | 80 | 100 | 0 | 60
2 | Nc1c(F)c(-c2ccc3ccoc3c2)nc(C(=O)OCc2ccc(F)cc2)c1Cl [Example I-04] | 90 | 40 | 100 | 90 | 50 | 70 | 40 | 100 | 100 | 100 | 40 | 80 | 90 | 100 | 50
3 | Nc1cc(-c2ccc3ccoc3c2)nc(C(=O)OCc2cccc(F)c2)c1Cl [Example I-02] | 30 | 80 | 100 | 100 | 100 | 90 | 70 | 90 | 100 | 90 | 70 | 100 | 100 | 100 | 70
4 | Nc1cc(-c2ccc3occc3c2)nc(C(=O)OCc2ccc(F)cc2)c1Cl [Example I-05] | 50 | 30 | 90 | 90 | 90 | 90 | 50 | 100 | 100 | 100 | 80 | 30 | 100 | 100 | 90
5 | COc1ccc(COC(=O)c2nc(-c3ccc4ccoc4c3)c(F)c(N)c2Cl)cc1 [Example I-03] | 80 | 20 | 100 | 90 | 50 | 40 | 90 | 100 | 100 | 100 | 40 | 40 | 90 | 100 | 100
